This passage reports IC50 and inhibition results from patent US9765056B2, “Indole and pyrrole compounds, a process for their preparation and pharmaceutical compositions containing them” (LES LABORATOIRES SERVIER, priority 2013, dated 2017).

Assay [1] relates to RS4;11 leukaemia tumour line. As to the kind of experiment: In vitro cytotoxicity, Microculture Tetrazolium Assay (MTT). It is filed as cell-based. The conditions noted are these: Homo sapiens; RS4;11 cells, 48 hours exposure. The protocol: The cytotoxicity studies were carried out on the RS4;11 leukaemia tumour line.
The cells are distributed onto microplates and exposed to the test compounds for 48 hours. The cell viability is then quantified by a colorimetric assay, the Microculture Tetrazolium Assay (Cancer Res., 1987, 47, 939-942).

In the next assay the target is Bcl-2 protein (histag-Bcl-2, UniProtKB P10415) (Homo sapiens (Human), UniProt P10415). Nature of the assay: Inhibition of Bcl-2 by the fluorescence polarisation technique. The format is binding. The conditions noted are these: for IC50: fluorescence polarisation test, method A, or method B where underlined (underlining not visible), read-out: IC50 (nM) Bcl-2 FP. From the text: Inhibition of Bcl-2 by the fluorescence polarisation technique
Bcl-2 protein, sequence (P10415 whole entry): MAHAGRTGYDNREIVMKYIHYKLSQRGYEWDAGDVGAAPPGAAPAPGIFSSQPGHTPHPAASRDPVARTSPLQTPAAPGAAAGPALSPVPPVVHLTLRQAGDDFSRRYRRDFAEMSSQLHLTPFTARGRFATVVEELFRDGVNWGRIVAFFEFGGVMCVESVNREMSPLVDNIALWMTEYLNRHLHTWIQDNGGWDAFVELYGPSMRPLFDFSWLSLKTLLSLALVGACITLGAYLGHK

Structures can show the parent of a compound that is named as a salt.

On to `Cc1cc(C(=O)N(c2ccc(O)cc2)c2ccc3c(ccn3C)c2)cn1-c1cc(Cl)ccc1C(=O)N1Cc2ccccc2C[C@H]1CN1CCN(C)CC1` [Example 89, 1-(5-Chloro-2-{[(3S)-3-[(4-methylpiperazin-1-yl)methyl]-3,4-dihydroisoquinolin-2(1H)-yl]carbonyl}phenyl)-N-(4-hydroxyphenyl)-5-methyl-N-(1-methyl-1H-indol-5-yl)-1H-pyrrole-3-carboxamide], for which the IC50 was determined as 59.8 nM in assay [1] and 4.2 nM at Bcl-2 protein.

Turning to `Cc1cc(C(=O)N(c2ccc(O)cc2)c2ccc3c(ccn3C)c2)cn1-c1cc2c(cc1C(=O)N1Cc3ccccc3C[C@H]1CN1CCN(C)CC1)OCO2` [Example 90, N-(4-Hydroxyphenyl)-5-methyl-N-(1-methyl-1H-indol-5-yl)-1-(6-{[(3S)-3-[(4-methylpiperazin-1-yl)methyl]-3,4-dihydroisoquinolin-2(1H)-yl]carbonyl}-1,3-benzodioxol-5-yl)-1H-pyrrole-3-carboxamide], the IC50 worked out at 76.6 nM in assay [1] and 3.6 nM at Bcl-2 protein.

Take `Cc1ccc(N(C(=O)c2cc(C)n(-c3cc(Cl)ccc3C(=O)N3Cc4ccccc4C[C@H]3CN3CCN(C)CC3)c2)c2ccc(O)cc2)cc1` [Example 91, 1-(5-Chloro-2-{[(3S)-3-[(4-methylpiperazin-1-yl)methyl]-3,4-dihydroisoquinolin-2(1H)-yl]carbonyl}phenyl)-N-(4-hydroxyphenyl)-5-methyl-N-(4-methylphenyl)-1H-pyrrole-3-carboxamide]: the IC50 in assay [1] turned out to be 172 nM; on Bcl-2 protein, 5.3 nM.

Regarding `Cc1cc(C(=O)N(c2ccc(O)cc2)c2ccc3[nH]ccc3c2)cn1-c1cc(Cl)cc(Cl)c1C(=O)N1Cc2ccccc2C[C@H]1CN1CCN(C)CC1` [Example 92, 1-(3,5-Dichloro-2-{[(3S)-3-[(4-methylpiperazin-1-yl)methyl]-3,4-dihydroisoquinolin-2(1H)-yl]carbonyl}phenyl)-N-(4-hydroxyphenyl)-N-(1H-indol-5-yl)-5-methyl-1H-pyrrole-3-carboxamide], the IC50 in assay [1] came out at 202 nM; at Bcl-2 protein it was 9.6 nM.

Consider `CN1CCN(C[C@@H]2Cc3ccccc3CN2C(=O)c2ccc(Cl)cc2-n2cc(C(=O)N(c3ccc(O)cc3)c3ccc4c(ccn4C)c3)c3ccccc32)CC1` [Example 93, 1-(5-Chloro-2-{[(3S)-3-[(4-methylpiperazin-1-yl)methyl]-3,4-dihydroisoquinolin-2(1H)-yl]carbonyl}phenyl)-N-(4-hydroxyphenyl)-N-(1-methyl-1H-indol-5-yl)-1H-indole-3-carboxamide], for which the IC50 in assay [1] came out at 75.4 nM; at Bcl-2 protein it was 3.3 nM.

Consider `Cc1cc(C(=O)N(c2ccc(O)cc2)c2ccc3c(ccn3C)c2)cn1-c1cc2c(cc1C(=O)N1Cc3ccccc3C[C@H]1CN(C)C)OCO2` [Example 94, 1-(6-{[(3S)-3-[(Dimethylamino)methyl]-3,4-dihydroisoquinolin-2(1H)-yl]carbonyl}-1,3-benzodioxol-5-yl)-N-(4-hydroxyphenyl)-5-methyl-N-(1-methyl-1H-indol-5-yl)-1H-pyrrole-3-carboxamide hydrochloride], for which the IC50 in assay [1] is 118 nM; on Bcl-2 protein, 7.9 nM.

As to `Cc1cc(C(=O)N(c2ccc(O)cc2)c2ccc3c(ccn3C)c2)cn1-c1cc(Cl)ccc1C(=O)N1Cc2ccccc2C[C@H]1CN(C)C` [Example 95, 1-(5-Chloro-2-{[(3S)-3-[(dimethylamino)methyl]-3,4-dihydroisoquinolin-2(1H)-yl]carbonyl}phenyl)-N-(4-hydroxyphenyl)-5-methyl-N-(1-methyl-1H-indol-5-yl)-1H-pyrrole-3-carboxamide hydrochloride], the IC50 in assay [1] is 264 nM; on Bcl-2 protein, 6.4 nM.

With `Cc1ccc(N(C(=O)c2cc(C)n(-c3cc4c(cc3C(=O)N3Cc5ccccc5C[C@H]3CN3CCN(C)CC3)OCO4)c2)c2ccc(O)cc2)cc1` [Example 96, N-(4-Hydroxyphenyl)-5-methyl-N-(4-methylphenyl)-1-(6-{[(3S)-3-[(4-methylpiperazin-1-yl)methyl]-3,4-dihydroisoquinolin-2(1H)-yl]carbonyl}-1,3-benzodioxol-5-yl)-1H-pyrrole-3-carboxamide], the IC50 in assay [1] was 157 nM; at Bcl-2 protein, 3.9 nM.

For the compound `CN1CCN(C[C@@H]2Cc3ccccc3CN2C(=O)c2cc3c(cc2-n2cc(C(=O)N(c4ccc(O)c(F)c4)c4ccc5c(ccn5C)c4)c4ccccc42)OCO3)CC1` [Example 97, N-(3-Fluoro-4-hydroxyphenyl)-N-(1-methyl-1H-indol-5-yl)-1-(6-{[(3S)-3-[(4-methylpiperazin-1-yl)methyl]-3,4-dihydroisoquinolin-2(1H)-yl]carbonyl}-1,3-benzodioxol-5-yl)-1H-indole-3-carboxamide hydrochloride], the half-maximal inhibitory concentration (IC50) in assay [1] came to 73.2 nM; at Bcl-2 protein, 6.1 nM.

With `Cc1ccc(N(C(=O)c2cn(-c3cc4c(cc3C(=O)N3Cc5ccccc5C[C@H]3CN3CCN(C)CC3)OCO4)c3ccccc23)C2CCNCC2)cc1` [Example 98, N-(4-Methylphenyl)-1-(6-{[(3S)-3-[(4-methylpiperazin-1-yl)methyl]-3,4-dihydroisoquinolin-2(1H)-yl]carbonyl}-1,3-benzodioxol-5-yl)-N-(piperidin-4-yl)-1H-indole-3-carboxamide bis-hydrochloride], inhibition in assay [1] was half-maximal at 1880 nM (IC50). The inhibition at 10 µM at Bcl-2 protein (read-out: percentage fluorescence polarisation inhibition (Bcl-2 FP)) turned out to be 45.1%.

`CCn1ccc2cc(N(C(=O)c3cn(-c4cc5c(cc4C(=O)N4Cc6ccccc6C[C@H]4CN4CCN(C)CC4)OCO5)c4ccccc34)c3ccc(O)cc3)ccc21` [Example 99, N-(1-Ethyl-1H-indol-5-yl)-N-(4-hydroxyphenyl)-1-(6-{[(3S)-3-[(4-methylpiperazin-1-yl)methyl]-3,4-dihydroisoquinolin-2(1H)-yl]carbonyl}-1,3-benzodioxol-5-yl)-1H-indole-3-carboxamide]: the figures for the 50% inhibitory concentration (IC50) (in assay [1]; at Bcl-2 protein) were 41.7 nM and 4.8 nM, respectively.

For `CC(C)n1ccc2cc(N(C(=O)c3cn(-c4cc5c(cc4C(=O)N4Cc6ccccc6C[C@H]4CN4CCN(C)CC4)OCO5)c4ccccc34)c3ccc(O)cc3)ccc21` [Example 100, N-(4-Hydroxyphenyl)-1-(6-{[(3S)-3-[(4-methylpiperazin-1-yl)methyl]-3,4-dihydroisoquinolin-2(1H)-yl]carbonyl}-1,3-benzodioxol-5-yl)-N-[1-(propan-2-yl)-1H-indol-5-yl]-1H-indole-3-carboxamide], the half-maximal inhibitory concentration (IC50) in assay [1] turned out to be 43.4 nM; on Bcl-2 protein it was 6.9 nM.

On to `Cc1cc(C(=O)N(c2ccc(O)cc2)c2ccc3[nH]ccc3c2)cn1-c1cc(Br)ccc1C(=O)N1Cc2ccccc2C[C@H]1C(=O)N1CCN(C)CC1` [Example 101, 1-(5-Bromo-2-{[(3S)-3-[(4-methylpiperazin-1-yl)carbonyl]-3,4-dihydroisoquinolin-2(1H)-yl]carbonyl}phenyl)-N-(4-hydroxyphenyl)-N-(1H-indol-5-yl)-5-methyl-1H-pyrrole-3-carboxamide], for which the values for the IC50 (in assay [1]; at Bcl-2 protein) were 1880 nM and 99.1 nM, respectively.

In the case of `Cc1cc(C(=O)N(c2ccc(O)cc2)c2ccc3[nH]ccc3c2)cn1-c1cc(Br)ccc1C(=O)N1Cc2ccccc2C[C@H]1CN1CCN(C2CCC2)CC1` [Example 102, 1-(5-Bromo-2-{[(3S)-3-[(4-cyclobutylpiperazin-1-yl)methyl]-3,4-dihydroisoquinolin-2(1H)-yl]carbonyl}phenyl)-N-(4-hydroxyphenyl)-N-(1H-indol-5-yl)-5-methyl-1H-pyrrole-3-carboxamide], the IC50 in assay [1] worked out at 108 nM; on Bcl-2 protein it was 8.4 nM.

In the case of `Cc1cc(C(=O)N(c2ccc(O)cc2)c2ccc3c(c2)CCN3)cn1-c1cc2c(cc1C(=O)N1Cc3ccccc3C[C@H]1CN1CCN(C)CC1)OCO2` [Example 103, N-(2,3-Dihydro-1H-indol-5-yl)-N-(4-hydroxyphenyl)-5-methyl-1-(6-{[(3S)-3-[(4-methylpiperazin-1-yl)methyl]-3,4-dihydroisoquinolin-2(1H)-yl]carbonyl}-1,3-benzodioxol-5-yl)-1H-pyrrole-3-carboxamide hydrochloride], the IC50 in assay [1] was 523 nM; at Bcl-2 protein, 17.4 nM.

As for `Cc1cc(C(=O)N(c2ccc(O)cc2)c2ccc3[nH]ccc3c2)cn1-c1cc(Br)ccc1C(=O)N1Cc2ccccc2C[C@H]1CN1CCCC1` [Example 104, 1-(5-Bromo-2-{[(3S)-3-(pyrrolidin-1-ylmethyl)-3,4-dihydroisoquinolin-2(1H)-yl]carbonyl}phenyl)-N-(4-hydroxyphenyl)-N-(1H-indol-5-yl)-5-methyl-1H-pyrrole-3-carboxamide], the IC50 in assay [1] came out at 383 nM; at Bcl-2 protein it was 18.8 nM.

As to `Cc1cc(C(=O)N(c2ccc(O)cc2)c2ccc3c(ccn3C)c2)cn1-c1cc2c(cc1C(=O)N1Cc3ccccc3C[C@H]1CN1CCCC1)OCO2` [Example 105, N-(4-Hydroxyphenyl)-5-methyl-N-(1-methyl-1H-indol-5-yl)-1-(6-{[(3S)-3-(pyrrolidin-1-ylmethyl)-3,4-dihydroisoquinolin-2(1H)-yl]carbonyl}-1,3-benzodioxol-5-yl)-1H-pyrrole-3-carboxamide hydrochloride], the half-inhibitory concentration (IC50) came out at 202 nM in assay [1] and 13.6 nM on Bcl-2 protein.

Consider `Cc1ccc(N(C(=O)c2cc(C)n(-c3cc4c(cc3C(=O)N3Cc5ccccc5C[C@H]3CN3CCOCC3)OCO4)c2)c2ccc(O)cc2)cc1` [Example 106, N-(4-Hydroxyphenyl)-5-methyl-N-(4-methylphenyl)-1-(6-{[(3S)-3-(morpholin-4-ylmethyl)-3,4-dihydroisoquinolin-2(1H)-yl]carbonyl}-1,3-benzodioxol-5-yl)-1H-pyrrole-3-carboxamide hydrochloride], for which the IC50 amounted to 521 nM in assay [1] and 19.6 nM at Bcl-2 protein.

As usually defined, the IC50 is the midpoint of a concentration-inhibition curve. A word on the inhibition: it is the drop in the measured response relative to a control, in per cent.
